This note sets out measurements from PubChem BioAssay AID248 (DTP/NCI, 2004).

Values joined by “and” are separate entries in the source; they are usually repeats but may differ in a detail not shown here. Identical values can stand only once. Toxic doses and inconclusive results are not listed.

This assay deals with L1210 leukemia ip in BDF1 mice, survival T/C. The assay is described as follows: NCI In Vivo Anticancer Drug Screen. Data for tumor model L1210 Leukemia (intraperitoneal) in B6D2F1 (BDF1) mice. The note with it: endpoint: mean survival time, higher = longer survival. In short, it runs like this: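 Value reflects the ratio of survival in compound-treated mice to survival in vehicle-treated controls, with both groups carrying the same transplanted tumor.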

[1] abbreviates: dose: 100.0 mg/kg/injection, schedule: Q04DX003 (ip), vehicle: saline with Tween-80.
Where [2] appears, read: dose: 200.0 mg/kg/injection, schedule: Q04DX003 (ip), vehicle: saline with Tween-80.
The mark [3] stands for this setting: dose: 400.0 mg/kg/injection, schedule: Q04DX003 (ip), vehicle: saline with Tween-80.
Setting [4] is: dose: 100.0 mg/kg/injection, schedule: Q01DX009 (ip), vehicle: saline.
Where [5] appears, read: dose: 100.0 mg/kg/injection, schedule: Q04DX003 (ip), vehicle: Klucel (hydroxypropylcellulose) (HPC).

Take `O=C(NNC(=O)c1ccccc1O)c1ccccc1`: the T/C by setting is: (dose: 100.0 mg/kg/injection, schedule: Q04DX002 (ip), vehicle: saline with Tween-80) 93 % of control; (dose: 200.0 mg/kg/injection, schedule: Q04DX002 (ip), vehicle: saline with Tween-80) 93 % of control; (dose: 400.0 mg/kg/injection, schedule: Q04DX002 (ip), vehicle: saline with Tween-80) 97 % of control.
On to `OCC1OC(n2nc(Cl)c3ccccc32)C(O)C1O` (stereo not given), for which the T/C (dose: 50.0 mg/kg/injection, schedule: Q01DX005 (ip), vehicle: other) was 105 % of control; the T/C (dose: 100.0 mg/kg/injection, schedule: Q01DX005 (ip), vehicle: other) is 102 % of control; the T/C (dose: 200.0 mg/kg/injection, schedule: Q01DX005 (ip), vehicle: other) is 102 % of control.
As for `O=C1CN(CCl)C(=O)CN1CCl`, the T/C runs as follows: (dose: 50.0 mg/kg/injection, schedule: Q01DX009 (ip), vehicle: water) 100 % of control; (dose: 100.0 mg/kg/injection, schedule: Q01DX009 (ip), vehicle: water) 101 % of control; (dose: 100.0 mg/kg/injection, schedule: Q04DX003 (ip), vehicle: water) 113 % of control; (dose: 200.0 mg/kg/injection, schedule: Q04DX003 (ip), vehicle: water) 110 % of control; (dose: 400.0 mg/kg/injection, schedule: Q04DX003 (ip), vehicle: water) 113 % of control.
With `O=C(O)C1CC(=O)N(Cc2ccccc2)C1` (stereo not given), the T/C was 102 % of control (dose: 100.0 mg/kg/injection, schedule: Q01DX009 (ip), vehicle: saline with Tween-80); 100 % of control under setting [1]; 90 % of control (dose: 200.0 mg/kg/injection, schedule: Q01DX009 (ip), vehicle: saline with Tween-80); 107 % of control under setting [2]; 98 % of control (dose: 400.0 mg/kg/injection, schedule: Q01DX009 (ip), vehicle: saline with Tween-80); 96 % of control under setting [3].
On to `C=C1C(=O)OC2C1C(O)C(OC(=O)/C(C)=C\C)C(C)=C1CC3OC3(C)C12` (stereo not given), for which the T/C runs as follows: (dose: 25.0 mg/kg/injection, schedule: Q01DX001 (ip), vehicle: saline with Tween-80) 94 % of control; (dose: 50.0 mg/kg/injection, schedule: Q01DX001 (ip), vehicle: saline with Tween-80) 105 % of control.
Turning to `O=C(NCc1ccco1)Nc1ccc([N+](=O)[O-])cc1`, the T/C is, setting by setting: (dose: 222.0 mg/kg/injection, schedule: Q01DX Z (ip), vehicle: methylcellulose (MC)) 101 % of control; (dose: 333.0 mg/kg/injection, schedule: Q01DX Z (ip), vehicle: methylcellulose (MC)) 94 % of control; (dose: 500.0 mg/kg/injection, schedule: Q01DX Z (ip), vehicle: methylcellulose (MC)) 96 % of control.
Take `CCOC(=O)NCC(CCN(C)C)(c1cccc2ccccc12)C(C)C` (stereo not given): the T/C under setting [4] was 98 % of control; the T/C under setting [5] was 97 % of control; the T/C (dose: 200.0 mg/kg/injection, schedule: Q01DX009 (ip), vehicle: saline) is 107 % of control; the T/C (dose: 200.0 mg/kg/injection, schedule: Q04DX003 (ip), vehicle: Klucel (hydroxypropylcellulose) (HPC)) was 97 % of control.
Regarding `CC(=O)OCC1OC(n2ccc(NC(=S)Nc3ccn(C4OC(COC(C)=O)C(OC(C)=O)C4OC(C)=O)c(=O)n3)nc2=O)C(OC(C)=O)C1OC(C)=O` (stereo not given), the T/C by setting is: (dose: 400.0 mg/kg/injection, schedule: Q01DX001 (ip), vehicle: saline) 100 % of control; (dose: 400.0 mg/kg/injection, schedule: Q04DX003 (ip), vehicle: saline) 105 % of control; (dose: 800.0 mg/kg/injection, schedule: Q01DX001 (ip), vehicle: saline) 96 % of control; (dose: 800.0 mg/kg/injection, schedule: Q01DX009 (ip), vehicle: saline) 116 % of control; (dose: 800.0 mg/kg/injection, schedule: Q04DX003 (ip), vehicle: saline) 98 % of control; (dose: 1600.0 mg/kg/injection, schedule: Q01DX001 (ip), vehicle: saline) 96 % of control. Moreover, for the setting “dose: 1600.0 mg/kg/injection, schedule: Q04DX003 (ip), vehicle: saline”, the T/C is 100 % of control.
Take `O=NN(CCCl)C(=O)NC1CCC(NC(=O)N(CCCl)N=O)CC1` (stereo not given): the T/C was 162 % of control and 286 % of control (dose: 44.0 mg/kg/injection, schedule: Q01DX001 (ip), vehicle: other); 247 % of control (dose: 63.0 mg/kg/injection, schedule: Q01DX001 (ip), vehicle: carboxymethylcellulose (CMC)); 168 % of control and 328 % of control (dose: 67.0 mg/kg/injection, schedule: Q01DX001 (ip), vehicle: other); 267 % of control (dose: 82.0 mg/kg/injection, schedule: Q01DX001 (ip), vehicle: carboxymethylcellulose (CMC)); 305 % of control and 314 % of control (dose: 100.0 mg/kg/injection, schedule: Q01DX001 (ip), vehicle: other); 310 % of control (dose: 125.0 mg/kg/injection, schedule: Q01DX001 (ip), vehicle: carboxymethylcellulose (CMC)). In addition, the T/C is 342 % of control (dose: 127.0 mg/kg/injection, schedule: Q01DX001 (ip), vehicle: carboxymethylcellulose (CMC)); 268 % of control and 180 % of control (dose: 150.0 mg/kg/injection, schedule: Q01DX001 (ip), vehicle: other); 290 % of control (dose: 187.0 mg/kg/injection, schedule: Q01DX001 (ip), vehicle: carboxymethylcellulose (CMC)); 285 % of control and 178 % of control (dose: 225.0 mg/kg/injection, schedule: Q01DX001 (ip), vehicle: other); 344 % of control (dose: 255.0 mg/kg/injection, schedule: Q01DX001 (ip), vehicle: carboxymethylcellulose (CMC)); 275 % of control (dose: 280.0 mg/kg/injection, schedule: Q01DX001 (ip), vehicle: carboxymethylcellulose (CMC)). Moreover, the T/C is, setting by setting: (dose: 337.0 mg/kg/injection, schedule: Q01DX001 (ip), vehicle: other) 306 % of control; (dose: 510.0 mg/kg/injection, schedule: Q01DX001 (ip), vehicle: carboxymethylcellulose (CMC)) 181 % of control.
As to `CC(=O)OCC1OC2OC(c3ccccc3)=NC2C(OC(C)=O)C1OC(C)=O` (stereo not given), the T/C is 97 % of control (dose: 22.5 mg/kg/injection, schedule: Q01DX001 (ip), vehicle: carboxymethylcellulose (CMC)); 103 % of control (dose: 45.0 mg/kg/injection, schedule: Q01DX001 (ip), vehicle: carboxymethylcellulose (CMC)); 105 % of control (dose: 90.0 mg/kg/injection, schedule: Q01DX001 (ip), vehicle: carboxymethylcellulose (CMC)); 97 % of control (dose: 180.0 mg/kg/injection, schedule: Q01DX001 (ip), vehicle: carboxymethylcellulose (CMC)).
In the case of `CCCCCC(Br)C(Br)CC(Br)C(Br)CCCCCCCC(=O)O` (stereo not given), the T/C runs as follows: (dose: 100.0 mg/kg/injection, schedule: Q01DX009 (ip), vehicle: Klucel (hydroxypropylcellulose) (HPC)) 95 % of control; under setting [5], 98 % of control; under setting [1], 98 % of control; (dose: 200.0 mg/kg/injection, schedule: Q01DX009 (ip), vehicle: Klucel (hydroxypropylcellulose) (HPC)) 90 % of control; under setting [2], 97 % of control; (dose: 400.0 mg/kg/injection, schedule: Q01DX009 (ip), vehicle: Klucel (hydroxypropylcellulose) (HPC)) 93 % of control. Besides, the T/C reads like this: (dose: 400.0 mg/kg/injection, schedule: Q04DX003 (ip), vehicle: Klucel (hydroxypropylcellulose) (HPC)) 93 % of control; under setting [3], 91 % of control.
Consider `CCN(CC)CCOc1ccc(OC)cc1`, for which the T/C (dose: 25.0 mg/kg/injection, schedule: Q04DX003 (ip), vehicle: saline) is 91 % of control; the T/C (dose: 50.0 mg/kg/injection, schedule: Q01DX009 (ip), vehicle: saline) was 102 % of control; the T/C (dose: 50.0 mg/kg/injection, schedule: Q04DX003 (ip), vehicle: saline) is 115 % of control; the T/C under setting [4] was 111 % of control; the T/C (dose: 100.0 mg/kg/injection, schedule: Q04DX003 (ip), vehicle: saline) is 104 % of control and 121 % of control.
For `S=C(NCc1ccccc1)[S][Sn]([S]C(=S)NCc1ccccc1)([c]1ccccc1)[c]1ccccc1`, the T/C (dose: 5.0 mg/kg/injection, schedule: Q01DX001 (ip), vehicle: steriod suspending solution) was 98 % of control; the T/C (dose: 10.0 mg/kg/injection, schedule: Q01DX001 (ip), vehicle: steriod suspending solution) is 97 % of control; the T/C (dose: 20.0 mg/kg/injection, schedule: Q01DX001 (ip), vehicle: steriod suspending solution) was 106 % of control.
Turning to `O=C1NC(=S)S/C1=C/c1ccc2c(c1)OCO2`, the T/C by setting is: (dose: 7.5 mg/kg/injection, schedule: Q01DX009 (ip), vehicle: saline with Tween-80) 93 % of control; (dose: 15.0 mg/kg/injection, schedule: Q01DX009 (ip), vehicle: saline with Tween-80) 88 % of control; (dose: 30.0 mg/kg/injection, schedule: Q01DX009 (ip), vehicle: saline with Tween-80) 89 % of control.
